For two compounds, APPTT, Occulations and Ki results are on record in ChEMBL document CHEMBL1129865, “Synthesis, evaluation, and crystallographic analysis of L-371,912: A potent and selective active-site thrombin inhibitor” (Bioorg Med Chem Lett, 1997).

Experiment [1] in a line: Concentration required to double the activated partial thromboplastin time in human plasma was determined. The class given is functional.
The subject of experiment [2] is Rattus norvegicus. Briefly: Efficacy by observing the number of occulation in rat when a dose of 6 ug/Kg/min iv. administration; 1/6. Type of experiment: functional.
Experiment [3] relates to Rattus norvegicus. Briefly: Efficacy by observing the number of occulation in rat when a dose of 6 ug/Kg/min iv. administration; 3/6. Type of experiment: functional.
The target in another experiment is T1, Serine protease 1 (Bos taurus, UniProt P00760).
T1 sequence (P00760 whole entry): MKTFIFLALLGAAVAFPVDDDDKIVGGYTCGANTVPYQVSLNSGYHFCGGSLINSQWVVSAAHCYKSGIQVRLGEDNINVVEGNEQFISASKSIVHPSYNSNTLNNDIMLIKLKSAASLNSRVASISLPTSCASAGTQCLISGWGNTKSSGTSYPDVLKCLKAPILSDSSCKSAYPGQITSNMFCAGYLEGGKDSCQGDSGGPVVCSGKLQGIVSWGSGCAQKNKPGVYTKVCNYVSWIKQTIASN
Briefly: In vitro inhibition against bovine trypsin was determined.

Take `CN[C@H](Cc1ccccc1)C(=O)N1CCC[C@H]1C(=O)NC[C@H]1CC[C@H](N)CC1`: the APPTT in experiment [1] stood at 1.1 µM. The same compound returned an Occulations with Rattus norvegicus [2] of 1.

The compound `CNC(=O)C(=O)[C@@H](NC(=O)[C@@H]1CCCN1C(=O)[C@@H](Cc1ccccc1)NC)[C@H]1CC[C@H](N)CC1` came in with an APPTT in experiment [1] of 2 µM. The Occulations with Rattus norvegicus [3] is 3. This compound registered a Ki on Serine protease 1 of 1150 nM.

For orientation: Ki means a dissociation constant, usually derived from enzyme kinetics or from competition with a known ligand. Read a high Ki as lower affinity.
